Tests used:
Experiment in all cases: relative viability (nuclei count vs DMSO), 5 days (fraction); higher = more cells survive
[1] = compound: C1CN(CCN1)C2=CC=C(C=C2)C3=CN4C(=C(C=N4)C5=CC=NC6=CC=CC=C56)N=C3 [DM3189] + C[C@@H](Oc1cc(-c2cnn(C3CCNCC3)c2)cnc1N)c1c(Cl)ccc(F)c1Cl [Crizotinib] (partner 1 µM)
Method in brief: (§1)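 Five library-drug doses in √10 steps were combined with a fixed anchor-drug dose, or a single drug was given alone, by pin tool to lung cancer cell lines in 1536-well plates the day after seeding. Nuclei were stained and counted after 5 days. Relative viability is the nuclei count in treated wells over that in vehicle wells, taken as the median of duplicate plates.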

[2] = compound: C1CN(CCN1)C2=CC=C(C=C2)C3=CN4C(=C(C=N4)C5=CC=NC6=CC=CC=C56)N=C3 [DM3189] + CS(=O)(=O)N1CCN(Cc2cc3nc(-c4cccc5[nH]ncc45)nc(N4CCOCC4)c3s2)CC1 [Pictilisib] (partner 1 µM)
Method in brief: as §1

[3] = compound: C1CN(CCN1)C2=CC=C(C=C2)C3=CN4C(=C(C=N4)C5=CC=NC6=CC=CC=C56)N=C3 [DM3189] + Cc1nc(NC(=O)N2CCC[C@H]2C(N)=O)sc1-c1ccnc(C(C)(C)C(F)(F)F)c1 [Alpelisib] (partner 2 µM)
Method in brief: as §1

[4] = compound: C1CN(CCN1)C2=CC=C(C=C2)C3=CN4C(=C(C=N4)C5=CC=NC6=CC=CC=C56)N=C3 [DM3189] + CCNC(=O)c1noc(-c2cc(C(C)C)c(O)cc2O)c1-c1ccc(CN2CCOCC2)cc1 [Luminespib] (partner 0.01 µM)
Method in brief: as §1

[5] = compound: C1CN(CCN1)C2=CC=C(C=C2)C3=CN4C(=C(C=N4)C5=CC=NC6=CC=CC=C56)N=C3 [DM3189] + C[C@]1(O)C[C@@H](c2nc(-c3ccc4ccc(-c5ccccc5)nc4c3)c3c(N)nccn32)C1 [Linsitinib] (partner 1 µM)
Method in brief: as §1

[6] = compound: C1CN(CCN1)C2=CC=C(C=C2)C3=CN4C(=C(C=N4)C5=CC=NC6=CC=CC=C56)N=C3 [DM3189] + CS(=O)(=O)CCNCc1ccc(-c2ccc3ncnc(Nc4ccc(OCc5cccc(F)c5)c(Cl)c4)c3c2)o1 [Lapatinib] (partner 2 µM)
Method in brief: as §1

[7] = compound: C1CN(CCN1)C2=CC=C(C=C2)C3=CN4C(=C(C=N4)C5=CC=NC6=CC=CC=C56)N=C3 [DM3189] + N=C(N)NC(=N)NCCc1ccccc1 [Phenformin] (partner 250 µM)
Method in brief: as §1

[8] = compound: C1CN(CCN1)C2=CC=C(C=C2)C3=CN4C(=C(C=N4)C5=CC=NC6=CC=CC=C56)N=C3 [DM3189] + Nc1nc2[nH]cc(CCc3ccc(C(=O)N[C@@H](CCC(=O)O)C(=O)O)cc3)c2c(=O)[nH]1 [Pemetrexed] (partner 0.2 µM)
Method in brief: as §1

[9] = compound: C1CN(CCN1)C2=CC=C(C=C2)C3=CN4C(=C(C=N4)C5=CC=NC6=CC=CC=C56)N=C3 [DM3189] + CC(C)C[C@H](NC(=O)[C@H](Cc1ccccc1)NC(=O)c1cnccn1)B(O)O [Bortezomib] (partner 0.002 µM)
Method in brief: as §1

[10] = compound: C1CN(CCN1)C2=CC=C(C=C2)C3=CN4C(=C(C=N4)C5=CC=NC6=CC=CC=C56)N=C3 [DM3189] + COc1cccc2cc(-c3nc([C@H]4CC[C@H](C(=O)O)CC4)n4ncnc(N)c34)[nH]c12 [OSI-027] (partner 0.5 µM)
Method in brief: as §1

[11] = compound: C1CN(CCN1)C2=CC=C(C=C2)C3=CN4C(=C(C=N4)C5=CC=NC6=CC=CC=C56)N=C3 [DM3189] + COc1cc2c(Oc3ccc(NC(=O)C4(C(=O)Nc5ccc(F)cc5)CC4)cc3F)ccnc2cc1OCCCN1CCOCC1 [Foretinib] (partner 0.25 µM)
Method in brief: as §1

[12] = compound: C1CN(CCN1)C2=CC=C(C=C2)C3=CN4C(=C(C=N4)C5=CC=NC6=CC=CC=C56)N=C3 [DM3189] + Cc1nc(Nc2ncc(C(=O)Nc3c(C)cccc3Cl)s2)cc(N2CCN(CCO)CC2)n1 [Dasatinib] (partner 0.075 µM)
Method in brief: as §1

[13] = compound: C1CN(CCN1)C2=CC=C(C=C2)C3=CN4C(=C(C=N4)C5=CC=NC6=CC=CC=C56)N=C3 [DM3189]
Method in brief: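 In 1536-well plates, lung cancer cell lines rested overnight at 37 °C before five library-drug doses (not always all listed), √10 apart, were pinned onto vehicle-anchored plates. Nuclei were counted with MetaXpress from 4× Hoechst images taken after 5 days without medium change. Viability compares treated-well with vehicle-well nuclei as a median over plates, and plates needed control CV below 25% plus at least one doubling to pass.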

## NCI-H1563
[1]; first compound 0.08 µM
  relative viability: 0.944
[1]; first compound 0.253 µM
  relative viability: 0.865
[1]; first compound 0.8 µM
  relative viability: 0.833
[1]; first compound 2.53 µM
  relative viability: 0.899
[2]; first compound 0.08 µM
  relative viability: 0.635
[2]; first compound 0.253 µM
  relative viability: 0.622
[2]; first compound 0.8 µM
  relative viability: 0.625
[2]; first compound 2.53 µM
  relative viability: 0.616
[3]; first compound 0.08 µM
  relative viability: 0.909
[3]; first compound 0.253 µM
  relative viability: 0.896
[3]; first compound 0.8 µM
  relative viability: 0.949
[3]; first compound 2.53 µM
  relative viability: 0.839
[4]; first compound 0.08 µM
  relative viability: 0.568
[4]; first compound 0.253 µM
  relative viability: 0.487
[4]; first compound 0.8 µM
  relative viability: 0.481
[4]; first compound 2.53 µM
  relative viability: 0.539
[5]; first compound 0.08 µM
  relative viability: 1.2
[5]; first compound 0.253 µM
  relative viability: 1.22
[5]; first compound 0.8 µM
  relative viability: 1.13
[5]; first compound 2.53 µM
  relative viability: 1.25
[6]; first compound 0.08 µM
  relative viability: 1.12
[6]; first compound 0.253 µM
  relative viability: 0.872
[6]; first compound 0.8 µM
  relative viability: 0.854
[6]; first compound 2.53 µM
  relative viability: 1.27
[7]; first compound 0.08 µM
  relative viability: 0.722
[7]; first compound 0.253 µM
  relative viability: 0.602
[7]; first compound 0.8 µM
  relative viability: 0.593
[7]; first compound 2.53 µM
  relative viability: 0.631
[8]; first compound 0.08 µM
  relative viability: 0.715
[8]; first compound 0.253 µM
  relative viability: 0.787
[8]; first compound 0.8 µM
  relative viability: 0.755
[8]; first compound 2.53 µM
  relative viability: 0.752
[9]; first compound 0.08 µM
  relative viability: 0.945
[9]; first compound 0.253 µM
  relative viability: 0.762
[9]; first compound 0.8 µM
  relative viability: 0.887
[9]; first compound 2.53 µM
  relative viability: 1.07
[10]; first compound 0.08 µM
  relative viability: 0.876
[10]; first compound 0.253 µM
  relative viability: 0.673
[10]; first compound 0.8 µM
  relative viability: 0.749
[10]; first compound 2.53 µM
  relative viability: 0.785
[11]; first compound 0.08 µM
  relative viability: 0.953
[11]; first compound 0.253 µM
  relative viability: 0.817
[11]; first compound 0.8 µM
  relative viability: 0.98
[11]; first compound 2.53 µM
  relative viability: 0.987
[12]; first compound 0.08 µM
  relative viability: 0.441
[12]; first compound 0.253 µM
  relative viability: 0.381
[12]; first compound 0.8 µM
  relative viability: 0.459
[12]; first compound 2.53 µM
  relative viability: 0.483
[13]; 0.08 µM
  relative viability: 1.06
[13]; 0.253 µM
  relative viability: 0.958
[13]; 0.8 µM
  relative viability: 1.03
[13]; 2.53 µM
  relative viability: 1.12
